# In patent US20240261398A1 (priority 2018, published 2024):
# Values joined by “and” are separate entries in the source; they are usually repeats but may differ in a detail not shown here. Equal entries are not always repeated.
# Key:
# MA-CA04 virus [1] = system: MA-CA04 virus; design: species or system mice; conditions: mouse, in vivo
# MA-CA04 virus [2] = system: MA-CA04 virus; design: species or system BALB/c mice; conditions: mouse, in vivo
Compound,Survival rate (%) (MA-CA04 virus [1]),"Mean value of antibody titers (Log 10 PFU/g) ± Standard deviation, Lung, 3 days after infection (MA-CA04 virus [2])","Mean value of antibody titers (Log 10 PFU/g) ± Standard deviation, Nasal concha, 3 days after infection (MA-CA04 virus [2])",also measured
O.O=P([O-])([O-])OCC(O)CO.[Ca+2] (stereo not shown),75,,,influence on body weight (FIG. 3 A and C) (MA-CA04 virus [1]): the same level as the previously known adjuvant Poly(I:C); survival rate (FIG. 3 B and D) (MA-CA04 virus [1]): the same level as Poly(I:C) or was slightly lower than Poly(I:C)
CC(/C=C/C=C(C)/C=C/C(=O)O)=C\C=C\C=C(C)\C=C\C=C(C)\C=C\C(=O)O (stereo in doubt) [Norbixin],50,7.2 ± 0.3 Log 10 PFU/g and 7.4 ± 0.3 Log 10 PFU/g,,
CC(/C=C/C=C(\C)C(=O)O[C@@H]1O[C@H](CO[C@@H]2O[C@H](CO)[C@@H](O)[C@H](O)[C@H]2O)[C@@H](O)[C@H](O)[C@H]1O)=C\C=C\C=C(C)\C=C\C=C(/C)C(=O)O[C@@H]1O[C@H](CO[C@@H]2O[C@H](CO)[C@@H](O)[C@H](O)[C@H]2O)[C@@H](O)[C@H](O)[C@H]1O [Crocin],50,,,
COC(=O)[C@H](Cc1ccccc1)NC(=O)[C@H](CC(=O)O)NCCC(C)(C)C [Neotame],,7.5 ± 0.3 Log 10 PFU/g and 7.5 ± 0.2 Log 10 PFU/g,6.1 ± 0.05 Log 10 PFU/g and 6.3 ± 0.1 Log 10 PFU/g,"virus titers in the nasal concha and the lung, six days after the infection (MA-CA04 virus [2]): no virus titers were detected in some mice"
Cc1cc2nc3c(=O)[nH]c(=O)nc-3n(C[C@H](O)[C@H](O)[C@H](O)CO)c2cc1C [Riboflavin],25,,,
C[C@@H]1O[C@@H](OC[C@H]2O[C@@H](Oc3c(-c4ccc(O)c(O)c4)oc4cc(O)cc(O)c4c3=O)[C@H](O)[C@@H](O)[C@@H]2O)[C@H](O)[C@H](O)[C@H]1O [Rutin hydrate],75,,,
O=C([O-])c1ccccc1.[Na+] [Sodium benzoate],,6.7 ± 0.2 Log 10 PFU/g and 7.0 ± 0.2 Log 10 PFU/g,6.4 ± 0.1 Log 10 PFU/g and 6.2 ± 0.04 Log 10 PFU/g,"virus titers in the nasal concha and the lung, six days after the infection (MA-CA04 virus [2]): no virus titers were detected in some mice"
O=S([O-])[O-].[Na+].[Na+] [Sodium sulfite],,7.0 ± 0.1 Log 10 PFU/g,6.1 ± 0.3 Log 10 PFU/g and 6.2 ± 0.2 Log 10 PFU/g,
